US10918891B2, “Cosmetic treatment method for the skin” (SYNTIVIA, priority 2016, dated 2021)

Key:
[1] = test system: normal human Fibroblasts (NHDF); assay: Cellular viability test with cadmium on NHDF; type: cell-based; details: pretreatment 24 h and treatment 24 h with (Ia) 10 ppm, Cd 3 ppm, read at 450 nm, CTL (Cd 3 ppm) 0.95
Description: The cells used for this example are normal human Fibroblasts (NHDF).
A cellular viability test with cadmium is carried out in order to know the protective effect of the compound (Ia) against polluting stress. Cadmium (Cd) is a toxic and ecotoxic heavy metal found in the environment.
The cells are cultured at the concentration of 7000 cells per well of 96-well plates.
The pretreatment is carried out 24 hours after the inoculation of the cells with the compound (Ia) at 10 ppm in an aqueous solution with 0.1% dimethylsulfoxide, or without compound (Ia) for 24 hours.
After the pretreatment, a treatment with cadmium is carried out. The cells are placed in the presence of cadmium at 3 ppm+compound (Ia) at 10 ppm, or only in the presence of cadmium at 3 ppm (CTL) for 24 hours at 37° C., 5% CO2. The control without stress (CTL without stress) corresponds to the cells not having undergone a treatment with cadmium.

[2] = test system: explants of human skin (NATIVESKIN, Genoskin); assay: γ-H2Ax immunofluorescence (DNA double-strand breaks) on human skin explants after repeated UVA irradiation; type: cell-based; details: skin explant, topical (Ia) 100 ppm in Carbopol, three UVA stresses 50 J/cm2
Description: (§1) In these examples, the protective properties of the compound (Ia) against the damage caused to the DNA and to the extracellular matrix by repeated UVA irradiation, are measured on explants of human skin (NATIVESKIN, Genoskin).
(§2) Upon reception of the explants, the latter are topically coated with Carbopol® (Lubrizol)+DMSO for the non-UVA control (CTL without stress) and for the control with stress by UVAs (CTL UVA), and with Carbopol®+compound (Ia) at 100 ppm for the test.
(§3) Over three days, the cells are subjected to three stresses with UVAs at a rate of 50 joules per square centimetre.
(§4) The first irradiation takes place 24 hours after the treatments. The products are present before, during and after the irradiation. The control without stress is wrapped in aluminium and also placed in the irradiator.
During the irradiation, the explants inserted are disposed in a petri dish with PBS. Fresh medium (Genoskin Culture medium) is added after the irradiation. […]
The sections are mounted on a slide, and observed using a microscope (Leica DM5000B). An absence of fluorescence is clearly observed for the sample treated with the compound (Ia) according to the invention, which corresponds to an absence of double-strand breaks of the DNA.
The fluorescence is quantified by means of the microscope.

ELN (Elastin) = assay: Elastin immunofluorescence on human skin explants after repeated UVA irradiation; type: cell-based; details: skin explant, (Ia) 100 ppm
Description: as §1, §2, §3, §4
During the irradiation, the explants inserted are disposed in a petri dish with PBS. Fresh medium (Genoskin Culture medium) is added after the irradiation.
After the third day of irradiation, the explants are cultivated for 24 hours, then collected and fixed for 48 hours in formalin (Sigma). The samples are included in paraffin and cut.
Marking of the protein elastin is carried out by immunofluorescence on a paraffin section.
The samples are prepared for the fluorescent marking. […]
The sections are mounted on a slide and the fluorescence is quantified using a microscope (Leica DM5000B).

MMP-3 = assay: Gene expression of MMP-3 by quantitative RT-PCR in NHEK; type: cell-based, human; details: (Ia) 3 ppm (10^−5M), 24 hours
Description: (§5) In these examples, the expression of the messenger RNA is measured by the technique of quantitative RT-PCR (reverse transcription followed by polymerase chain reaction), after incubation in vitro of the various cell types in the absence or in the presence of compound (Ia).
(§6) This study was carried out on normal human dermal Fibroblasts (NHDF) or normal human epidermal Keratinocytes (NHEK). The compound (Ia) is tested at 10^−5M in an aqueous solution with 0.1% dimethylsulfoxide.
(§7) The cells are cultured at the concentration of 10,000 cells per well of 96-well plates, in the presence of standard culture medium according to the cell type.
(§8) The compound (Ia) is then added at the concentration (3 ppm), for 24 hours.
(§9) The supernatant is eliminated and the cells are taken up in a specific buffer for the extraction of the messenger RNA (mRNA). The mRNA is purified and reverse transcribed in the presence of a commercial reverse transcriptase.
(§10) The complementary DNA (cDNA) obtained is quantified by RT-PCR, by means of suitable primers. The rate of expression of the mRNA is normalised with 5 reference genes.
(§11) The cells used for this example are normal human keratinocytes (NHEK).

TNFα = assay: Gene expression of TNFα by quantitative RT-PCR in NHEK; type: cell-based, human; details: (Ia) 3 ppm (10^−5M), 24 hours
Description: as §5, §6, §7, §8, §9, §10, §11

NHEK cells = assay: Cellular viability (WST1) of NHEK exposed to cigarette extract; type: cell-based, human; details: (Ia) 10 ppm pretreatment 24 h and treatment 24 h; cigarette extract diluted 1/50; WST1, 450 nm; Control 2.070, Cigarette extract 1.392
Description: The cells used for this example are normal human Fibroblasts (NHDF) and normal human epidermal Keratinocytes (NHEK).
A cigarette extract is prepared using a laboratory device allowing the sucking up of cigarette smoke via a suction system, and the controlled bubbling of this cigarette smoke into the solution studied, which is then filtered on a 0.22 μm filter made of Polyether sulfone (PES).
The cells are cultured at the concentration of 7000 cells per well of 96-well plates (NHDF) or 8000 cells per well (NHEK), in the presence of standard culture medium for NHDF or NHEK (for 24 h 37° C., 5% CO2).
After pretreatment of the cells with the compound (Ia) at 10 ppm for 24 h the cells are treated with the cigarette extract diluted to 1/50th in the culture medium with or without the compound (Ia) at 10 ppm for 24 h. The absorbance is read a first time at […] (Multiskan®).
Then, 10 μl of WST1 (Roche) are introduced into the medium and the cells are incubated for 3 hours.
The absorbance at 450 nm is measured after the addition of WST1 (Multiskan®) and the results obtained, in terms of cellular viability, are shown in tables 11 and 12 below. The treated cells (Cigarette extract+(Ia)) are compared to the untreated cells (Control) or to the cells having only undergone exposure to the cigarette extract (Cigarette extract).

Cc1ncc(CO)c(CNC(=O)/C=C/c2ccc(O)c(O)c2)c1O [Compound (Ia)]
Cellular viability during the exposure or non-exposure to cadmium (optical density) [1]: 1.28 optical density | Cells positive for γ-H2Ax marking / total number of cells [2]: 59/1282 | Cells positive for γ-H2Ax marking based on 100% ([2]; CTL UVA 33.93%, CTL without stress 4.34%): 4.76% | Average fluorescence intensity of the marking ELN (AU) (ELN (Elastin); CTL UVA 145.9, CTL without stress 160.4): 182.4 AU | Cells positive for ELN based on 100% (ELN (Elastin); relative to CTL without stress, CTL UVA −9%): +14% | Reduction of the gene expression compared to the basal level based on 100% (MMP-3) (MMP-3): −50% | Reduction of the gene expression compared to the basal level based on 100% (TNFα) (TNFα): −45% | Cellular viability on NHEK (Optical density) (NHEK cells): 2.589 Optical density
